Values joined by “and” are separate entries in the source; they are usually repeats but may differ in a detail not shown here. Equal entries are not always repeated.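 Tested at 5 concentrations; 48 h exposure; 96-well plates; endpoints linearly interpolated, else capped at highest concentration. Here, GI50 denotes the concentration required for 50% inhibition of growth. TGI: concentration producing complete growth inhibition.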
What was measured:
Assay in all cases: growth of human tumour cells (NCI), 48 h
UACC-257 melanoma = system: UACC-257 melanoma
IGROV1 ovarian = system: IGROV1 ovarian
SF-268 CNS = system: SF-268 CNS
SK-MEL-2 melanoma = system: SK-MEL-2 melanoma
COLO 205 colon = system: COLO 205 colon
NCI/ADR-RES ovarian = system: NCI/ADR-RES ovarian
OVCAR-5 ovarian = system: OVCAR-5 ovarian
SF-539 CNS = system: SF-539 CNS
MDA-MB-435 = system: MDA-MB-435
HCT-116 colon = system: HCT-116 colon

Structure (SMILES)	TGI (UACC-257 melanoma) [µM]	TGI (IGROV1 ovarian)	TGI (SF-268 CNS) [µM]	TGI (SK-MEL-2 melanoma)	TGI (COLO 205 colon) [µM]	TGI (NCI/ADR-RES ovarian) [µM]	TGI (OVCAR-5 ovarian)	TGI (SF-539 CNS)	TGI (MDA-MB-435) [µM]	TGI (HCT-116 colon) [µM]	GI50 (IGROV1 ovarian)	GI50 (SF-539 CNS)	GI50 (MDA-MB-435) [µM]	GI50 (UACC-257 melanoma) [µM]	GI50 (SF-268 CNS) [µM]	GI50 (COLO 205 colon) [µM]	GI50 (NCI/ADR-RES ovarian) [µM]	GI50 (OVCAR-5 ovarian) [µM]	GI50 (HCT-116 colon) [µM]	GI50 (SK-MEL-2 melanoma) [µM]
C=C/C(C)=C\CC1[C@](C)(O)CC[C@H]2C(C)(C)C(=O)CC[C@]12C (some centres not stated)	> 100	> 100 µM	> 100	> 100 µM	> 100	> 100	> 100 µM	> 100 µM	> 100	> 100										
ClCCCc1ccccc1C1=NCCc2ccccc21	> 100	> 100 µM	> 100	> 100 µM	52.9	> 100	> 100 µM	> 100 µM	> 100	> 100										
CCCCC(=O)c1c(O)nc2sccn2c1=O		> 10 µM	> 10	> 10 µM	> 10	> 10	> 10 µM	> 10 µM	> 10	> 10										
O=c1[nH]nc(-c2ccccc2)n1/N=C\c1ccccc1	> 100		> 100	> 100 µM	> 100	> 100	> 100 µM	> 100 µM	> 100	> 100										
O=[N+]([O-])c1ccc2sc(C=Nc3cnccn3)cc2c1	> 100	> 100 µM	> 100	75.2 µM	> 100	> 100	> 100 µM	> 100 µM	> 100	> 100										
O=C1NC(=O)C(C(CC(=O)c2ccc([N+](=O)[O-])cc2)c2ccccc2)C(=O)N1 (configuration not stated)	> 100	> 100 µM	> 100	> 100 µM	> 100	> 100	> 100 µM	> 100 µM	> 100	28										
[Cl][Sn]([c]1ccccc1)([c]1ccccc1)[c]1ccccc1		0.865 µM and 0.196 µM		0.524 µM and 0.196 µM and 0.0578 µM			0.456 µM and 0.266 µM and 0.0901 µM	0.642 µM and 0.244 µM and 0.0847 µM	0.42		0.316 µM and 0.0531 µM	0.25 µM and 0.109 µM and 0.0284 µM	0.186							
CSCSSC	> 100	> 100 µM	> 100	> 100 µM	> 100	> 100	> 100 µM	> 100 µM	> 100	> 100										
CC(=O)OCC1OC(SC2=N/C(=C\c3ccc(Br)s3)C(=O)N2CN2CCOCC2)C(OC(C)=O)C(OC(C)=O)C1OC(C)=O (configuration not stated)	32.2	46.9 µM	81.9		37.6	44	72.1 µM		> 100	28.3										
NCCCN(CCCN(C(=O)Nc1ccccc1)c1ccccc1)C(=O)Nc1ccccc1	43.1	> 100 µM	> 100	55.6 µM	> 100	> 100	> 100 µM			> 100										
CCCC(=O)NC(Nc1ccc(S(=O)(=O)Nc2cc(C)on2)cc1)(C(=O)OCC)C(F)(F)F (configuration not stated)	> 100	> 100 µM	> 100	> 100 µM	> 100	> 100	> 100 µM	> 100 µM	> 100	> 100										
O=C(N/N=C/C=C/c1ccc([N+](=O)[O-])o1)c1cc2ccccc2cc1O	4.21	3.73 µM	7.43		3.35	7.27	10.7 µM	10.2 µM	2.38	1.4	0.981 µM	2.44 µM	0.506	1.38	1.43	1.84	1.36	3.35	0.326	
O=S(Nc1ccccc1)c1ccc(N2CCOCC2)cc1 (configuration not stated)	> 100	> 100 µM	> 100	> 100 µM	> 100	> 100		> 100 µM	> 100	> 100										
COc1cc([C@@H]2c3cc4c(cc3[C@@H](c3c(O)cc(O)c5c3O[C@H](c3ccc(O)c(O)c3)[C@@H](O)C5)[C@H]3COC(=O)[C@H]23)OCO4)cc(OC)c1OC	3.81	> 100 µM	> 100	3.75 µM	51.8	> 100	69.7 µM	> 100 µM	3.13	> 100										
CCNCCCn1c2c(c3ccc(Cl)cc3c1=O)C(=O)c1cc(OC)cnc1-2	32.9		2.04	29.2 µM	1.57	2.53	3.31 µM	1.71 µM	2.55	1.56		0.506 µM	1.15	14.5	0.33	0.146	0.282	1.48	0.203	12.5
CCOC(=O)CCC(NC(=O)OCc1ccccc1)C(=O)NC(CCC(=O)OCC)C(=O)NC(CCC(=O)OCC)C(=O)NC(CCC(=O)OCC)C(=O)NC(CCC(=O)OCC)C(=O)NC(CCC(=O)OCC)C(=O)NC(CCC(=O)OCC)C(=O)OCC (configuration not stated)	> 100		> 100	> 100 µM			> 100 µM		> 100	> 100										
CCOP(=O)(/C=C\n1cc(C)c(=O)[nH]c1=O)OCC	> 100	> 100 µM	> 100	> 100 µM	> 100	> 100	> 100 µM	> 100 µM	> 100	> 100										
CSCCC(N)C(=O)NCCNc1ccc(NCCNC(=O)C(N)CCSC)c2c1C(=O)c1ccccc1C2=O (configuration not stated)	12.7	12.2 µM	4.55	7.59 µM	3.13	16.2	5.61 µM	3.11 µM	4.59	2.16										
O=C(NCCCCCCCCCCCCNC(=O)Nc1cccc2ccccc12)Nc1cccc2ccccc12		36.3 µM	31.3	35.7 µM	44.1	60.6	79.6 µM	27 µM	33.5	34.3										
CCOC(=O)c1nc2ccc(C(F)(F)F)cc2nc1Oc1cc(OC)c(OC)c(OC)c1	> 100	> 100 µM	> 100	> 100 µM	63.7	> 100	> 100 µM	> 100 µM	> 100	> 100										
